Measurements as given in patent publication US8759300B2, “Polypeptides and methods of use” (The Research Foundation for the State University of New York, priority 2007, dated 2014).
No end group written: not given here.

Tests used:
[1] = system: TGF-β1 binding to intact human plasma FN; experiment: Inhibition of I125 TGF-β1 binding to immobilized FN by growth factor peptide; conditions: increasing concentrations of peptide; 25° C., 2 hours
Procedure: (§1) FIG. 9. Inhibition of TGF-β1 and PDGF-BB binding to intact human plasma FN with TGF-β1 and PDGF-BB FN-binding peptides, respectively. FN was adsorbed onto tissue culture plastic at a concentration of 0.125 μM and then excess protein-binding sites of the plastic blocked with 2% bovine serum albumin. Growth factor labeled with I^125 was incubated with FN-coated plates at 25° C. for 2 hours in the presence or absence of peptide. Data was calculated as [(GF binding in presence of peptide−background)/(GF binding in absence of peptide-background)]×100. n=3.
(§2) Two of these synthetic peptides (homologous to TGF-β1 and homologous to PDGF-BB) inhibit TGF-β1 and PDGF-BB binding to FN respectively (FIG. 9). Inhibition of TGF-β1 and PDGF-BB binding to intact human plasma FN was determined as follows. FN was adsorbed onto tissue culture plastic at a concentration of 0.125 μM and then excess protein-binding sites of the plastic blocked with 2% bovine serum albumin. Growth factor labeled with I^125 was incubated with FN-coated plates at 25° C. for 2 hours in the presence or absence of peptide. For example, relative binding of TGF-β1 to immobilized FN was determined for increasing concentrations of the synthetic peptide homologous to TGF-β1. […] For example, relative binding of PDGF-BB to immobilized FN was determined for increasing concentrations of the synthetic peptide homologous to PDGF-BB. […]

[2] = system: PDGF-BB binding to intact human plasma FN; experiment: Inhibition of I125 PDGF-BB binding to immobilized FN by growth factor peptide; conditions: increasing concentrations of peptide; 25° C., 2 hours
Chain of PDGF-BB binding to intact human plasma FN (P02751 610-812 limits assumed): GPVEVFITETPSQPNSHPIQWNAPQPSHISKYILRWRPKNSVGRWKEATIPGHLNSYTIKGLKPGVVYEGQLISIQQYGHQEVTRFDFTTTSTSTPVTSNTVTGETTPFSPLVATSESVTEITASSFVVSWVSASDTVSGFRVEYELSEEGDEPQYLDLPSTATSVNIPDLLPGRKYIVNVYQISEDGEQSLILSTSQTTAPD
Chain of PDGF-BB binding to intact human plasma FN (P02751 1815-2080 limits assumed): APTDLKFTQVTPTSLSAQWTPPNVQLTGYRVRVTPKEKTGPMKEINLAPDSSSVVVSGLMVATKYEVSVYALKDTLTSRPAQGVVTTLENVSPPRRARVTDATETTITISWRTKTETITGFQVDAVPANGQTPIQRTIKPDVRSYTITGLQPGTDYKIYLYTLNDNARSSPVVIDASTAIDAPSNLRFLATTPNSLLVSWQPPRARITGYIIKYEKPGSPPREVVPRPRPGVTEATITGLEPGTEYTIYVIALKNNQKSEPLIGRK
Procedure: as §1, §2

AHDF cells = experiment: AHDF proliferation response to PDGF-BB, XTT assay; assay type: cell-based, human; conditions: 30 ng/mL PDGF-BB, 1 week
Procedure: FIG. 7. […] AHDF cells were cultured at 4,000 cells/well in uncoated 96-well plates. Cells were incubated in DMEM for 4 hrs, and then further incubated in DMEM, 2% BSA, 30 ng/mL PDGF-BB with and without Peptide 5 (P5) at 37° C. for 1 week. Proliferation was estimated by the XTT assay (Promega) according to the manufacturer's instructions (mean±SD, n=4).

FN-null cells = experiment: FN-null cell assay, peptides added directly to medium on FNIII8-11; assay type: cell-based, mouse; conditions: peptide added directly to media with or without PDGF-BB
Procedure: FIG. 6. FN-null fibroblast response to soluble, unconjugated P5 (SEQ ID NO:37). FN-null cells were cultured at 4,000 cells/well in 96 well plates precoated with 0.125 mM of FNIII8-11 in DMEM for 4 hrs, and then further incubated in DMEM+2% BSA with or without the indicated concentrations of Peptide 5 at 37° C. for 3 days. Cells were counted in three 10× fields in each of 4 wells (mean±SD, n−12).
Scrambled variants of peptides 1 and 5 had no activity in these assays.
Variants of peptide 5 derived from fibronectin were generated by removing one amino acid at a time from the N-terminus or C-terminus of Peptide 5 (Table 2). These peptides (P12-P24) were added directly to medium with or without PDGF-BB.

Chain of TGF-β1 binding to intact human plasma FN (P02751 610-812 limits assumed): as the sequence (P02751 610-812 limits assumed) above
Chain of TGF-β1 binding to intact human plasma FN (P02751 1815-2080 limits assumed): as the sequence (P02751 1815-2080 limits assumed) above

## CCVRQLYIDFRKDLG [synthetic peptide homologous to TGF-β1]
[1]
  Proportion of full-length TGF-β1 bound to immobilized FN: decreased with increasing concentration

## CKTRTEVFEISRRLI [synthetic peptide homologous to PDGF-BB]
[2]
  Proportion of full-length PDGF-BB bound to immobilized FN: decreased with increasing concentration

## QPSHISKYILRWRPK [P5, QPSHISKYILRWRPK]
AHDF cells
  AHDF proliferation response to PDGF-BB: enhanced AHDF proliferation response to PDGF-BB
FN-null cells
  FN null cell survival and proliferation: supported FN null cell survival and proliferation
